Data on 50 compounds can be found in ChEMBL document CHEMBL2007661, “Compounds: GSK PKIS; Assays: UNC Frye lab” (2012).

“And” between values parts separate entries of the source, which are not always exact repeats. Equal values may be shown once.

In experiment [1] the target is T1, Inhibitor of nuclear factor kappa-B kinase subunit epsilon (Homo sapiens) (UniProt Q14164).
T1 sequence (whole entry): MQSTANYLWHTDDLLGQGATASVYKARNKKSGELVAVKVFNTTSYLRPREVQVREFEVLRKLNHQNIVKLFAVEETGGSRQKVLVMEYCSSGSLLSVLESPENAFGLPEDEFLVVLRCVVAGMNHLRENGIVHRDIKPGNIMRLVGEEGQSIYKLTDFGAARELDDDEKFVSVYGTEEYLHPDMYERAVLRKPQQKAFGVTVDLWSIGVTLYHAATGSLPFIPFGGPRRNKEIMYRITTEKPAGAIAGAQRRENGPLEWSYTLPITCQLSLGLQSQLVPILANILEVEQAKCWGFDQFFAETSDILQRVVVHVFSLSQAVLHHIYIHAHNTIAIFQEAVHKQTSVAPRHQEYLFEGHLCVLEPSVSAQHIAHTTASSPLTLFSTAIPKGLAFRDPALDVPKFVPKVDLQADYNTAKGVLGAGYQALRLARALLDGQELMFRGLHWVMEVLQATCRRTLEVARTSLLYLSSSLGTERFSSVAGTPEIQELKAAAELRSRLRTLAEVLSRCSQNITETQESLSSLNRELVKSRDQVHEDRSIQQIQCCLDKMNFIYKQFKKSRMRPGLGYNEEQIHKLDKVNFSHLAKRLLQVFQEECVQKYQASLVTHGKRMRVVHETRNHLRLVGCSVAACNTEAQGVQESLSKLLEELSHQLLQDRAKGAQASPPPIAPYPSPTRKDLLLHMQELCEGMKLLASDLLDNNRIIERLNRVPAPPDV
The note with it: at 1 µM.

The target in experiment [2] is T2, Serine/threonine-protein kinase TBK1 (Homo sapiens) (UniProt Q9UHD2).
T2 sequence (whole entry): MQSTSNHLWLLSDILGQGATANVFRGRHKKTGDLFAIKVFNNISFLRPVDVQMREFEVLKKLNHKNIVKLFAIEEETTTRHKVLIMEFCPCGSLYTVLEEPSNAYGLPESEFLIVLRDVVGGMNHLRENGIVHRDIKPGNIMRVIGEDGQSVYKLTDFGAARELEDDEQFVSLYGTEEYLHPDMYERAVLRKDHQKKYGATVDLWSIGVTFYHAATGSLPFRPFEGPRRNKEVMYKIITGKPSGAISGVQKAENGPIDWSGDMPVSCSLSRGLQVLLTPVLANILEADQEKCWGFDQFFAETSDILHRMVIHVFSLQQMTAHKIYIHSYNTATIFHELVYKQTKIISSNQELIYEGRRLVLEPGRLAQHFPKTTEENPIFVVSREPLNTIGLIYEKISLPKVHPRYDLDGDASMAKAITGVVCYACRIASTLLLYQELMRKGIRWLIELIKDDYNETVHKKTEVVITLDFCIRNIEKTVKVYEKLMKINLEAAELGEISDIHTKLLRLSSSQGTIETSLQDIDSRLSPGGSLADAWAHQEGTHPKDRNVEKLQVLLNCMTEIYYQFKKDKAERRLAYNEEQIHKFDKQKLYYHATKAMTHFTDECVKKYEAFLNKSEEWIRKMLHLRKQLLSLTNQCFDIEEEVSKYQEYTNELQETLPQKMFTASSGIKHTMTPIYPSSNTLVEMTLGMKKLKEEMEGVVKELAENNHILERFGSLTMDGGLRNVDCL
The note with it: at 1 µM.

As for `N#Cc1c(NC(=O)c2cccc3ccccc23)sc2c1CCCC2`, the inhibition in experiment [1] is -2% and -3%; in experiment [2], -4% and -3%.

In the case of `CCS(=O)(=O)c1ccc(OC)c(Nc2ncc(-c3cccc(-c4ccccc4F)c3)o2)c1`, the inhibition in experiment [1] was 10% and 5%; in experiment [2], 13%.

Take `NS(=O)(=O)c1cccc(-c2ccc3c(NC(=O)C4CC4)n[nH]c3c2)c1`: the inhibition in experiment [1] was -1% and 0%; in experiment [2] it was 2% and 1%.

Turning to `O=C1NC(=O)C(c2cccc(Cl)c2)=C1Nc1ccc(Cl)c(C(=O)O)c1`, the inhibition in experiment [1] is 5%; in experiment [2], 19% and 18%.

Turning to `COC(=O)Nc1nc2ccc(Sc3ccc(NC(=O)Nc4cc(C(F)(F)F)ccc4F)cc3)cc2[nH]1`, the inhibition in experiment [1] was -2% and -1%; in experiment [2] it was -3%.

Take `COc1cc(C=NNc2ncnc3c2cnn3Cc2ccccc2)ccc1O`: the inhibition in experiment [1] was 1% and -1%; in experiment [2] it was 9% and 14%.

Regarding `CCn1c(-c2nonc2N)nc2c(C#CCN)ncc(OCCCN)c21`, the inhibition is 8% and 6% in experiment [1]; 1% and 4% in experiment [2].

Take `O=C(O[C@H]1CN[C@H](C#Cc2cc3ncnc(Nc4ccc(Cc5ccccc5)cc4)c3s2)C1)N1CCOCC1`: the inhibition is 4% and 2% in experiment [1]; 14% and 20% in experiment [2].

Consider `COc1cc2ncn(-c3cc(O[C@@H](C)c4ccccc4Cl)c(C(N)=O)s3)c2cc1OC`, for which the inhibition is 6% and 8% in experiment [1]; 54% and 57% in experiment [2].

Take `O=S(=O)(CCOCc1ccc(-c2ccc3ncnc(Nc4ccc(OCc5cccc(F)c5)c(Cl)c4)c3c2)o1)c1ccccc1`: the inhibition is -2% and -1% in experiment [1]; -2% and 1% in experiment [2].

With `N#Cc1c(NC(=O)c2ccc(F)cc2)sc2c1CCCC2`, the inhibition in experiment [1] was -4% and -3%; in experiment [2], -4% and -6%.

Take `COc1c(C(N)=O)cc(-c2ccc(Cl)cc2)cc1-c1ccc(S(N)(=O)=O)cc1`: the inhibition in experiment [1] was -1% and 0%; in experiment [2], 0% and 1%.

As to `COc1ccc2ncn(-c3cc(O[C@H](C)c4ccccc4Cl)c(C(N)=O)s3)c2c1`, the inhibition in experiment [1] is -2%; in experiment [2], 0% and -4%.

`NC(=O)Cc1ccccc1Oc1nccc(-c2c(-c3ccc(F)cc3)ncn2C2CCNCC2)n1`: the inhibition in experiment [1] is 0% and -1%; in experiment [2] it was -1% and -2%.

Regarding `Fc1cccc(COc2ccc(Nc3ncnc4sc(-c5cccs5)cc34)cc2Cl)c1`, the inhibition in experiment [1] is -2%; in experiment [2], -3% and -2%.

For the compound `c1ccc(-c2n[nH]cc2-c2ccnc(-c3ccc(OCCn4ccnc4)cc3)c2)nc1`, the inhibition is -2% and 0% in experiment [1]; -4% and -3% in experiment [2].

Take `Fc1ccc(-c2nc3n(c2-c2ccncc2)CCS3)cc1`: the inhibition is -1% and -2% in experiment [1]; -4% and 3% in experiment [2].

For the compound `COc1cc2c(cc1Nc1nc(Nc3cccc(F)c3C(N)=O)c3cc[nH]c3n1)N(C(=O)CN1CCN(C(C)C)CC1)CC2`, the inhibition was -1% and -2% in experiment [1]; -2% and -6% in experiment [2].

In the case of `COC(=O)Nc1nc2cc(Oc3ccc(NC(=O)Nc4cccc(Br)c4)cc3)ccc2[nH]1`, the inhibition in experiment [1] is -3% and 0%; in experiment [2], 0% and 2%.

Consider `COc1ccc(-c2ccncc2)cc1C(N)=O`, for which the inhibition in experiment [1] was 1% and 3%; in experiment [2], 4% and 3%.

As for `COc1ccc(-c2nn3ncccc3c2-c2ccnc(Nc3cccc(C(F)(F)F)c3)n2)cc1`, the inhibition in experiment [1] is -1% and 0%; in experiment [2], -2% and 0%.

Turning to `NC(=O)c1cccc(Nc2nccc(Nc3cccc(F)c3)n2)c1`, the inhibition is 13% and 12% in experiment [1]; 6% and 11% in experiment [2].

Turning to `COc1cc(/C=N/Nc2ncnc3[nH]ncc23)ccc1O`, the inhibition in experiment [1] was 20%; in experiment [2], 31% and 33%.

`c1ccc(COc2ccc(Nc3ncnc4ccc(-c5ccco5)cc34)cc2)cc1`: the inhibition is -3% and -1% in experiment [1]; -3% and -2% in experiment [2].

As for `COc1cc(Nc2ncc3c(C)nc(-c4cccc(Oc5ccccc5)c4)n3n2)cc(OC)c1OC`, the inhibition is 59% in experiment [1]; 75% and 71% in experiment [2].

On to `COc1ccc2ncn(-c3cc(O[C@H](C)c4ccccc4C(F)(F)F)c(C(N)=O)s3)c2c1`, for which the inhibition in experiment [1] was -3% and -4%; in experiment [2], -8% and -6%.

Turning to `c1cnn2ncc(-c3ccnc(NCCCN4CCOCC4)n3)c2c1`, the inhibition in experiment [1] was 1% and 2%; in experiment [2], -2% and -4%.

Consider `[O-][S+]1CCN(Cc2ccc(-c3ccc4ncnc(Nc5ccc(OCc6ccccc6)c(Cl)c5)c4c3)o2)CC1`, for which the inhibition is -3% in experiment [1]; -4% and -6% in experiment [2].

`CCCN1CCC(Oc2cc(Nc3nc(Nc4cccc(F)c4C(N)=O)c4cc[nH]c4n3)c(OC)cc2Cl)CC1`: the inhibition was 0% and -2% in experiment [1]; 0% and -3% in experiment [2].

In the case of `COC(=O)c1sc(-n2cnc3cc(OC)c(OC)cc32)cc1OCc1ccccc1C(F)(F)F`, the inhibition is 13% and 11% in experiment [1]; 37% and 39% in experiment [2].

For `CCn1c(-c2nonc2N)nc2ccc(F)cc21`, the inhibition in experiment [1] was -1%; in experiment [2], 2% and 1%.

Take `COc1cc(Nc2nccc(-c3cnn4ncccc34)n2)cc(OC)c1`: the inhibition in experiment [1] was 38%; in experiment [2], 38% and 33%.

As to `Cc1ccc2c(c1)/C(=N/Nc1ccc(S(N)(=O)=O)cc1)C(=O)N2`, the inhibition in experiment [1] is -1% and 1%; in experiment [2], -2% and 3%.

Regarding `CCN1CCC(C(=O)Nc2n[nH]c3nnc(-c4cccc(F)c4F)cc23)CC1`, the inhibition in experiment [1] is -1% and -3%; in experiment [2] it was -3% and -6%.

For `FC(F)(F)c1cccc(Nc2nccc(-c3cnn4nc(-c5ccccc5)ccc34)n2)c1`, the inhibition in experiment [1] was 7% and 5%; in experiment [2], 17% and 7%.

For `Clc1ccc(CNc2nccc(-c3cnn4ncccc34)n2)cc1`, the inhibition in experiment [1] is 0%; in experiment [2], -1% and 0%.

In the case of `CCn1c(-c2nonc2N)nc2c(C#CC(C)(C)O)nc(OC[C@@H](N)c3ccccc3)cc21`, the inhibition was 39% and 40% in experiment [1]; 6% and 7% in experiment [2].

Turning to `COc1cc2c(cc1Nc1nc(Nc3ccsc3C(N)=O)c3cc[nH]c3n1)N(C(=O)CN(C)C)CCC2(C)C`, the inhibition in experiment [1] was 39% and 44%; in experiment [2] it was 57% and 54%.

Consider `FC(F)(F)c1ccc(-c2nn3ncccc3c2-c2ccnc(Nc3ccc4c(c3)OCCO4)n2)cc1`, for which the inhibition is -2% in experiment [1]; -5% and -7% in experiment [2].

For the compound `CCOc1ccc2c(-c3ccnc(Nc4cc(OC)cc(C(F)(F)F)c4)n3)cnn2n1`, the inhibition in experiment [1] was 32% and 31%; in experiment [2], 51% and 43%.

`CS(=O)(=O)CCNCc1ccc(-c2ccc3ncnc(Nc4ccc(OCc5ccccc5)c(Br)c4)c3c2)o1`: the inhibition is -2% and -1% in experiment [1]; 0% and 1% in experiment [2].

In the case of `CCc1cccc(CC)c1/C=C/c1cncc(C(=O)NC)c1`, the inhibition is -2% and -3% in experiment [1]; 0% and -2% in experiment [2].

`C#Cc1cccc(Nc2ncnc3ccc(OCCCCNCCS(C)(=O)=O)cc23)c1`: the inhibition was -2% and 0% in experiment [1]; -4% and 0% in experiment [2].

In the case of `CN1CCC(n2cnc(-c3ccc(F)cc3)c2-c2ccnc(NCCO)n2)CC1`, the inhibition was -3% in experiment [1]; -6% and -9% in experiment [2].

`CC1=C(C(=O)Nc2ccc3[nH]nc(C)c3c2)C(c2ccc(C(F)(F)F)cc2)CC(=O)N1` (stereo not given): the inhibition in experiment [1] is -1% and 0%; in experiment [2], -5% and -3%.

For the compound `NS(=O)(=O)c1ccc(N/N=C2\C(=O)Nc3ccc(C(=O)NCCc4c[nH]cn4)cc32)cc1`, the inhibition in experiment [1] is 17% and 15%; in experiment [2], 32% and 29%.

Consider `CS(=O)(=O)CCNCc1ccc(-c2ccc3ncnc(Nc4ccc(OCc5cccc(C(F)(F)F)c5)cc4)c3c2)o1`, for which the inhibition was 1% and -1% in experiment [1]; -3% and -1% in experiment [2].

On to `Cc1cc(O)cc(C)c1/C=C/c1cncc(C(=O)OC(C)(C)C)c1`, for which the inhibition in experiment [1] is -2% and 0%; in experiment [2] it was 0% and -2%.

`O=C(O[C@H]1CN[C@H](C#Cc2cc3ncnc(Nc4ccc(OCc5cccc(F)c5)c(Cl)c4)c3s2)C1)N1CCOCC1`: the inhibition is -1% and -3% in experiment [1]; 1% and 3% in experiment [2].

With `CCc1nccc2c1nc(-c1nonc1N)n2CC`, the inhibition in experiment [1] is -3% and 0%; in experiment [2] it was -2% and 1%.

As usually defined, the inhibition is the drop in the measured response relative to a control, in per cent.
